What was measured:
[1] = system: PSN1 pancreatic cancer xenografts; experiment: PSN1 pancreatic cancer xenograft model with gemcitabine; assay type: in vivo, female nude MF1 mice; details: VE-822 PO q2d 10, 30 or 60 mg/kg with gemcitabine 15 mg/kg IP q3d; FIG. 21
Protocol: PSN1 cells (1×10^6 cells per mouse) were implanted as a mixture in Matrigel (100 μl per mouse) into the flank of female nude MF1 mice and grown to a volume of about 200 mm^3 prior to compound administration. Gemcitabine was dosed alone at 15 mg/kg ip, once every three days (ip, q3d) in 0.5% methylcellulose in water for a maximum of 10 cycles. VE-822 was dosed, as a suspension in 0.5% methylcellulose in water, alone at either 10, 30 or 60 mg/kg po every other day for 28 days (po q2d). Three combination groups received gemcitabine at 15 mg/kg plus VE-822 either at 10, 30 or at 60 mg/kg po on the same schedule as the single agent groups. A control group received vehicle alone (0.5% methylcellulose ip q3d). All drug treatment was stopped on Day 30. Vehicle and VE-822 groups were sacrificed on day 13 due to excessive tumor volumes.
Data shown are mean tumor volume±SEM (n=8 per group). Red filled circles are VE-822 treatment; Black filled squares are vehicle treatment; Green filled circles are gemcitabine treatment; Blue filled circles are gemcitabine and VE-822 (10 mg/kg) treatment; Red filled circles are gemcitabine and VE-822 (30 mg/kg) treatment; Pink filled circles are gemcitabine and VE-822 (60 mg/kg) treatment;

[2] = system: PSN-1, MiaPaCa-2 and PancM cells; experiment: Clonogenic survival assay, pancreatic cancer cells; assay type: cell-based
Protocol: PSN-1 cells were plated as single cells, treated with 1 μM VE-821 at different time points in relation to 4 Gy irradiation and assessed for colony formation after 10 days. The survival fraction at 4 Gy for each of the treatment schedules was determined by taking into account the relevant plating efficiency of unirradiated cells. Cells were treated with 1 μM VE-821 4 h after plating and 1 h prior to irradiation. Drug was removed after 72 h and colony-forming ability was assessed after 10 to 21 days. (n=3). *, P<0.05; **, P<0.01 over DMSO-treated control. A) clonogenic survival curves of cells treated with 1 μM VE-821 and irradiation under hypoxic conditions. Plated cells were transferred to hypoxia (0.5% O2) and acclimatised for 6 h. VE-821 (1 μM) was then added at 1 h prior to irradiation and left for 72 h upon which the medium was replaced. Cells were transferred to normoxia at 1 h post-irradiation. B) clonogenic survival of cells after irradiation with 6 Gy and treatment with 1 μM VE-821 in oxic and hypoxic (0.5% O2) conditions, as described above and in FIG. 1 (n=3). *, P<0.05; **, P<0.01; ***, P<0.001 over DMSO-treated control. A) clonogenic survival of cells treated with gemcitabine and 1 μM VE-821. Cells were treated with increasing concentrations of gemcitabine for 24 h followed by 72 h treatment of 1 μM VE-821. Colony forming ability was assessed after 10 to 21 days. B) clonogenic survival of cells treated with gemcitabine in hypoxia. Plated cells were transferred to hypoxia (0.5% O2) and acclimatised for 6 h. Cells were then treated with increasing concentrations of gemcitabine for 24 h followed by 72 h treatment of 1 μM VE-821. Hypoxic cells were transferred to normoxia 1 h after VE-821 addition. C) clonogenic survival after treatment with 20 nM gemcitabine and VE-821 in oxic and hypoxic (0.5% O2) conditions, as described above. D) clonogenic survival of cells treated with gemcitabine and irradiation. PSN-1 and MiaPaCa-2 cells were treated with 5 nM or 10 nM gemcitabine, respectively, for 24 h, medium was then replaced and 1 μM VE-821 was added from 1 h prior to 72 h post 4 Gy irradiation. Colony forming ability was assessed after 10 to 21 days (n=3). *, P<0.05; **, P<0.01; ***, P<0.001 over DMSO-treated control. Logarithmically growing cells were plated in triplicate in 6-well tissue culture dishes under oxic (21% O2) or hypoxic conditions (0.5% O2) using an InVivo2 300 chamber (Ruskinn Technology, UK). […] Cells were incubated for 10-21 days until colonies were stained with 0.5% crystal violet and counted in a CellCount automated colony counter (Oxford Optronix). Clonogenic survival was calculated and data were fitted in the GraphPad Prism 4.0 (GraphPad Software, CA).

Structure (SMILES)	antitumor effects of gemcitabine (tumor volume) [1]	radiosensitisation under hypoxic conditions (clonogenic survival) ([2]; 1 μM VE-821, hypoxia 0.5% O2, FIG. 2 panels A-B)	sensitisation to gemcitabine (clonogenic survival) ([2]; 1 μM VE-821 for 72 h after 24 h gemcitabine, oxic and hypoxic (0.5% O2), FIG. 3 panels B-C)	potentiation of chemoradiation (clonogenic survival) ([2]; PSN-1 and MiaPaCa-2, 5 or 10 nM gemcitabine, 1 μM VE-821, 4 Gy, FIG. 3 panel D)	surviving fraction after irradiation ([2]; PSN-1 cells, 1 μM VE-821, 4 Gy, effect increased as drug incubation time after irradiation was extended, FIG. 1 panel C)
CNCc1ccc(-c2cc(-c3nc(-c4ccc(S(=O)(=O)C(C)C)cc4)cnc3N)on2)cc1 [VE-822]	enhances the antitumor effects of gemcitabine	–	–	–	–
CS(=O)(=O)c1ccc(-c2cnc(N)c(C(=O)Nc3ccccc3)n2)cc1 [VE-821]	–	radiosensitises tumour PSN-1, MiaPaCa-2 and PancM cells under hypoxic conditions	sensitises normoxic and hypoxic cancer cells to gemcitabine	potentiates the effect of chemoradiation	a decrease in surviving fraction was observed

Source: patent US10813929B2, “Treating cancer with ATR inhibitors” (VERTEX PHARMACEUTICALS INCORPORATED, priority 2011, dated 2020)
